Laboratory results taken from patent publication US6403618B1, “Agent and method for controlling angiogenesis” (Novactyl, Inc., priority 2000, dated 2002).

How the values were obtained:
[1] = test system: colon carcinoma LoVo cells; assay: Effect of fusaric acid on growth (cell number); type: cell-based
Procedure: After 30 hours of treatment with 500 μM fusaric acid, there was a prominent decrease in cell number. DNA synthesis was completely (100%) inhibited by 24 hours. When treated with 500 μM fusaric acid, the majority of the LoVo cells acquired a rounded morphology by 48 hours.
These floating cells were not viable. […] However, after 100 hours, an increase in cell number was noted after 25 additional hours.

[2] = test system: lung adenocarcinoma cell line; assay: Viability of other human carcinoma cell types; type: cell-based; settings: 48 hours of treatment
Procedure: (§1) As in previous examples, the following human cell lines were inhibited by similar concentrations of fusaric acid: Prostatic adenocarcinoma, skin carcinoma, colon carcinoma, liver adenocarcinoma and lung adenocarcinoma. For all these cell types, cell viability decreased by approximately 60% after 48 hours of treatment with fusaric acid.

[3] = test system: colon carcinoma cell line; assay: Viability of other human carcinoma cell types; type: cell-based; settings: 48 hours of treatment
Procedure: as §1

[4] = test system: liver adenocarcinoma cell line; assay: Viability of other human carcinoma cell types; type: cell-based; settings: 48 hours of treatment
Procedure: as §1

[5] = test system: Prostatic adenocarcinoma cell line; assay: Viability of other human carcinoma cell types; type: cell-based; settings: 48 hours of treatment
Procedure: as §1

[6] = test system: skin carcinoma cell line; assay: Viability of other human carcinoma cell types; type: cell-based; settings: 48 hours of treatment
Procedure: as §1

[7] = test system: WI-38 cells; assay: Viability by trypan blue dye exclusion; type: cell-based; settings: 500 μM
Procedure: To examine WI-38 cell viability in greater detail, the effects of fusaric acid were studied in logarithmically growing and contact inhibited confluent cells (Tables 2 and 3). In logarithmically growing WI-38 cells approximately 76% of the cells were viable after 30 hours of treatment with fusaric acid. When the cells were treated for 78 hours, only 26% of the cell population survived the pronounced cytotoxic actions of fusaric acid.

[8] = test system: WI-38 cells; assay: Effect of different doses of fusaric acid on total cell protein; type: cell-based; settings: WI-38, 1 mM
Procedure: (§2) In initial experiments to examine the effects of fusaric acid on cell growth and viability, WI-38 and LoVo cells were incubated for 24 to 72 hours in medium with or without various doses of fusaric acid (0.1-1 mM). The growth of both WI-38 and LoVo cells was inhibited by 500 μM fusaric acid in a time and dose dependent manner, as shown below in Table 2.

[9] = test system: LoVo cells; assay: as above; type: cell-based
Procedure: as §2

[10] = test system: MDA-468 cells; assay: DNA synthesis; type: cell-based; settings: Homo sapiens, by 24 hr, read-out: DNA synthesis inhibited
Procedure: (§3) After 12-24 hours of treatment with 500 μM fusaric acid, there was no further increase in cell number. […] These floating cells were not viable. Within 30 hours of treatment there was a 65% decrease in cell number. […] After 96 hours, less than 10% of the original population remained attached to the dish and no change in cell number was noted after one additional week.

[11] = test system: KB cells; assay: Viability by trypan blue dye exclusion; type: cell-based, human; settings: confluent cells, 500 μM, 48 h
Procedure: To examine KB cell viability in greater detail, the effects of fusaric acid were studied in logarithmically growing and confluent cells. In logarithmically growing KB cells 70% of the cells were viable after 48 hours in 500 μM fusaric acid. […] Thus, in contrast to LoVo cells, a significant proportion of the population of growing (70%) cells and virtually all (95%) of confluent KB cells resisted the pronounced cytotoxic action of fusaric acid (See Tables 3 and 4, above).

[12] = test system: WI-38 cells; assay: Effect of fusaric acid on growth (cell number); type: cell-based
Source text: The remaining cells were spread on the substratum in normal manner without any visible mitosis for 4 days after removal of the drug.

[13] = test system: LoVo cells; assay: Viability by trypan blue dye exclusion; type: cell-based; settings: 500 μM
Procedure: As in the case of WI-38, LoVo cell viability after fusaric acid treatment was investigated in logarithmically growing and confluent cells, as shown in Tables 2 and 3. In logarithmically growing LoVo cells, approximately 38% of the attached cells were viable after 30 hours of treatment with fusaric acid. When the cells were treated for 78 hours, only 4.5% of the cell population survived the pronounced cytotoxic actions of fusaric acid. […] Thus, LoVo cells are much more sensitive to the cytotoxic actions of fusaric acid in both growing and confluent population of cells in comparison to normal WI-38 cells.

[14] = test system: MDA-468 cells; type: cell-based, human
Procedure: As in the case of WI-38, MDA-468 cell viability after fusaric acid treatment was investigated in logarithmically growing and confluent cells. In logarithmically growing MDA-468 cells, less than 20% of the attached cells were viable after 30 hours of treatment with fusaric acid. When the cells were treated for 48 hours, only 0.1% of the cell population survived the pronounced cytotoxic actions of fusaric acid. […] Thus, MDA-468 cells are extremely sensitive to the cytotoxic actions of fusaric acid in both growing and confluent population of cells in comparison to normal WI-38 lines studied.

[15] = test system: human breast adenocarcinoma MDA-468 cells; assay: Effect of fusaric acid on growth (cell number); type: cell-based
Procedure: as §3

[16] = 500 μM, within 30 hours of treatment
[17] = logarithmic growth, 30 h, listed as Fusaric Acid

CCCCc1ccc(C(=O)O)nc1 [fusaric acid]
decrease in cell number [1, 16]: 60% | decline of cell population after removal of the drug ([1]; removal after 30 hours, up to approximately 100 hours): ~80% | cell viability decreased [2]: approximately 60% | cell viability decreased [3]: approximately 60% | cell viability decreased [4]: approximately 60% | cell viability decreased [5]: approximately 60% | cell viability decreased [6]: approximately 60% | % Survival ([7]; confluent cells, 48 h): 100% | % Survival [7, 17]: 76.4% | % Survival ([7]; logarithmic growth, 78 h): 26% | Monolayer Protein ([8]; 24 h): 236 μg/dish | Monolayer Protein ([8]; 48 h): 202 μg/dish | cytotoxicity ([9]; 1 mM fusaric acid, by 24 hours): extensive cytotoxicity | Monolayer Protein ([9]; LoVo, 0.5 mM, 48 h): 90 μg/dish | inhibition at 500 µM [10]: 100% | % Survival [11]: 95% | decrease in cell number ([12]; 30 hours with 500 μM, then 4 days in normal media): 30% | cells survived ([12]; after removal of fusaric acid, 500 μM for 30 hours): > 95% | % Survival ([13]; confluent cells, 48 h): 40% | % Survival ([13]; logarithmic growth, 30 h): approximately 38% | % Survival [13, 17]: 38.5% | % Survival ([13]; logarithmic growth, 78 h): 4.5% | cells survived ([14]; confluent cells, 500 μM, 48 hours): 10% | attached cells viable ([14]; logarithmic growth, 30 hours): less than 20% | cell population survived ([14]; logarithmic growth, 48 hours): 0.1% | decrease in cell number [15, 16]: 65% | original population remaining attached to the dish ([15]; drug removed after 30 hours, after 96 hours): less than 10%
